Experiment [1] addresses T1, NK3 receptor (Homo sapiens, UniProt P29371).
T1 sequence (P29371 1-465): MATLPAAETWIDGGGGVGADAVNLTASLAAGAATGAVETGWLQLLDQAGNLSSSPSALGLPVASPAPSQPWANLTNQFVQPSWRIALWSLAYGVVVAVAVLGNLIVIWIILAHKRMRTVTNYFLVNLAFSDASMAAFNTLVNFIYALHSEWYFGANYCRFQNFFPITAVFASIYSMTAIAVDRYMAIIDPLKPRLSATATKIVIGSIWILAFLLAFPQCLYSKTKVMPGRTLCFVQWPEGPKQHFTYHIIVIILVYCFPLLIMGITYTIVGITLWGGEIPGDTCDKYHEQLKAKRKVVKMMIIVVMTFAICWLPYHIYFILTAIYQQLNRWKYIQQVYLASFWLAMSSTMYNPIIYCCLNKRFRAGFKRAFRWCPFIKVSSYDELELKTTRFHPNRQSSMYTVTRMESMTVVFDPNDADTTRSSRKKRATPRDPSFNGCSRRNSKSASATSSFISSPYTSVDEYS
In words: NK3 receptor affinity (Ki). The class given is binding.

The target of experiment [2] is T1, NK3 receptor. The following applies: clinical trials; cited from earlier work.

The Ki is a dissociation constant, usually derived from enzyme kinetics or from competition with a known ligand. The low end stands for a stronger hold on the target, the high end for a looser hold on the target. Turning to `Cc1c(C(=O)N[C@H](c2ccc(F)cc2)C2CCC2)c2cccc(Cl)c2c(=O)n1-c1ccccc1` [Example 1bi, 8-Chloro-3-methyl-1-oxo-2-phenyl-1,2-dihydro-isoquinoline-4-carboxylic acid [(S)-cyclobutyl-(4-fluoro-phenyl)-methyl]-amide], the Ki in experiment [1] amounted to 31 nM.
On the same count and under the same terms, as for `Cc1c(C(=O)N[C@H](c2cccc(F)c2)C2CCC2)c2cccc(F)c2c(=O)n1-c1ccccc1` [Example 7h, 8-Fluoro-3-methyl-1-oxo-2-phenyl-1,2-dihydro-isoquinoline-4-carboxylic acid [(S)-cyclobutyl-(3-fluoro-phenyl)-methyl]-amide], the figure is 10 nM.
Turning to `Cc1c(C(=O)N[C@H](c2ccc(F)cc2)C2CC2)c2cccc(Cl)c2c(=O)n1-c1ccccc1` [Example 1ba, 8-Chloro-3-methyl-1-oxo-2-phenyl-1,2-dihydro-isoquinoline-4-carboxylic acid [(S)-cyclopropyl-(4-fluoro-phenyl)-methyl]-amide], the affinity in experiment [1] corresponds to a Ki of 55 nM.
Same read-out and setting: as for `Cc1c(C(=O)N[C@H](c2cccc(Cl)c2)C2CC2)c2cccc(Cl)c2c(=O)n1-c1ccccc1` [Example 1aw, 8-Chloro-3-methyl-1-oxo-2-phenyl-1,2-dihydro-isoquinoline-4-carboxylic acid [(S)-(3-chloro-phenyl)-cyclopropyl-methyl]-amide], the figure is 59 nM; as for `CC[C@H](NC(=O)c1c(C)n(-c2ccccc2)c(=O)c2c(Cl)cccc12)c1cccc(Cl)c1` [Example 1av, 8-Chloro-3-methyl-1-oxo-2-phenyl-1,2-dihydro-isoquinoline-4-carboxylic acid [(S)-1-(3-chloro-phenyl)-propyl]-amide], 39 nM.
Still for that read-out and setting: as for `CC[C@H](NC(=O)c1c(C)n(-c2ccccc2)c(=O)c2c(Cl)cccc12)c1ccc(F)cc1` [Example 1at, 8-Chloro-3-methyl-1-oxo-2-phenyl-1,2-dihydro-isoquinoline-4-carboxylic acid [(S)-1-(4-fluoro-phenyl)-propyl]-amide], the figure is 180 nM; as for `Cc1c(C(=O)N[C@@H](c2cccc(F)c2)C2CC2)c2cccc(Cl)c2c(=O)n1-c1ccccc1` [Example 1bl, 8-Chloro-3-methyl-1-oxo-2-phenyl-1,2-dihydro-isoquinoline-4-carboxylic acid [(R)-cyclopropyl-(3-fluoro-phenyl)-methyl]-amide], 810 nM; as for `CC[C@H](NC(=O)c1c(C)n(-c2ccccc2)c(=O)c2c(Cl)cccc12)c1ccccc1F` [Example 1au, 8-Chloro-3-methyl-1-oxo-2-phenyl-1,2-dihydro-isoquinoline-4-carboxylic acid [(S)-1-(2-fluoro-phenyl)-propyl]-amide], 270 nM.
On the same count and under the same terms, as for `Cc1c(C(=O)N[C@H](c2ccc(Cl)cc2)C2CC2)c2cccc(Cl)c2c(=O)n1-c1ccccc1` [Example 1ax, 8-Chloro-3-methyl-1-oxo-2-phenyl-1,2-dihydro-isoquinoline-4-carboxylic acid [(S)-(4-chloro-phenyl)-cyclopropyl-methyl]-amide], the figure is 150 nM.
Take `Cc1c(C(=O)NC(c2ccccc2F)C2CCC2)c2cccc(Cl)c2c(=O)n1-c1ccccc1` (stereo not drawn) [Example 1bo, 8-Chloro-3-methyl-1-oxo-2-phenyl-1,2-dihydro-isoquinoline-4-carboxylic acid [cyclobutyl-(2-fluoro-phenyl)-methyl]-amide]: the inhibitory constant (Ki) in experiment [1] worked out at 150 nM.
Same read-out and setting: in the case of `Cc1c(C(=O)N[C@H](c2ccccc2Cl)C2CC2)c2cccc(Cl)c2c(=O)n1-c1ccccc1` [Example 1bd, 8-Chloro-3-methyl-1-oxo-2-phenyl-1,2-dihydro-isoquinoline-4-carboxylic acid [(S)-(2-chloro-phenyl)-cyclopropyl-methyl]-amide] it was 49 nM; in that of `CC[C@H](NC(=O)c1c(C)n(-c2ccccc2)c(=O)c2c(Cl)cccc12)c1ccccc1Cl` [Example 1bb, 8-Chloro-3-methyl-1-oxo-2-phenyl-1,2-dihydro-isoquinoline-4-carboxylic acid [(S)-1-(2-chloro-phenyl)-propyl]-amide], 240 nM.
Regarding `Cc1c(C(=O)N[C@H](c2ccccc2F)C2CC2)c2cccc(Cl)c2c(=O)n1-c1ccccc1` [Example 1be, 8-Chloro-3-methyl-1-oxo-2-phenyl-1,2-dihydro-isoquinoline-4-carboxylic acid [(S)-cyclopropyl-(2-fluoro-phenyl)-methyl]-amide], the Ki in experiment [1] was 45 nM.
Still for that read-out and setting: as for `CC[C@H](NC(=O)c1c(C)n(-c2ccccc2)c(=O)c2c(Cl)cccc12)c1ccc(Cl)cc1` [Example 1as, 8-Chloro-3-methyl-1-oxo-2-phenyl-1,2-dihydro-isoquinoline-4-carboxylic acid [(S)-1-(4-chloro-phenyl)-propyl]-amide], the figure is 250 nM.
As for `CC[C@H](NC(=O)c1c(O)c(-c2ccccc2)nc2ccccc12)c1ccccc1` [talnetant], the “effect on cognitive behaviour of schizophrenics” value in experiment [2] is recorded as “ameliorate the cognitive behaviour of schizophrenics”.
For the compound `Cc1c(C(=O)N[C@H](c2cccc(F)c2)C2CC2)c2cccc(F)c2c(=O)n1-c1ccccc1` [Example 7e, 8-Fluoro-3-methyl-1-oxo-2-phenyl-1,2-dihydro-isoquinoline-4-carboxylic acid [(S)-cyclopropyl-(3-fluoro-phenyl)-methyl]-amide], the affinity in experiment [1] corresponds to a Ki of 15 nM.
Still for that read-out and setting: in the case of `Cc1c(C(=O)N[C@H](c2cccc(F)c2)C2CCC2)c2cccc(Cl)c2c(=O)n1-c1ccccc1` [Example 1bh, 8-Chloro-3-methyl-1-oxo-2-phenyl-1,2-dihydro-isoquinoline-4-carboxylic acid [(S)-cyclobutyl-(3-fluoro-phenyl)-methyl]-amide] it was 31 nM.
The same measure, in the same setting: in the case of `CC[C@H](NC(=O)c1c(C)n(-c2ccccc2)c(=O)c2c(Cl)cccc12)c1cccc(F)c1` [Example 1ay, 8-Chloro-3-methyl-1-oxo-2-phenyl-1,2-dihydro-isoquinoline-4-carboxylic acid [(S)-1-(3-fluoro-phenyl)-propyl]-amide] it was 47 nM.

The values are drawn from patent publication US8420667B2, “Isoquinolinone derivatives as NK3 antagonists” (H. Lundbeck A/S, priority 2008, dated 2013).
